Measurements published in ChEMBL document CHEMBL1201862, “PubChem BioAssay data set” (2004).
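In this assay, cells in 96-well plates receive the compound at five concentrations for 48 hours. Endpoints are linearly interpolated between the surrounding concentrations. GI50 marks 50% less growth.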 Calls of active or inactive are those of the source. No stated cut-off is given here; in the data, active = GI50 up to about 1.1 µM and inactive = higher.

Legend:
Assay in all cases: NCI tumour cell line growth inhibition, 48 h
[1] = system: M19-MEL
[2] = system: DMS-114
[3] = system: XF498
[4] = system: KM-20L2
[5] = system: DLD-1
[6] = system: HOP-18
[7] = system: LXFL 529
[8] = system: SNB-78
[9] = system: RXF 631

SMILES	GI50 [1]	GI50 [2]	GI50 [3]	GI50 [4]	GI50 [5]	GI50 [6]	GI50 [7]	GI50 [8]	GI50 [9]
O=C(O/N=C1/CCCC/C1=C\c1ccccc1)c1ccccc1	> 100 µM (inactive)	17.1 µM (inactive)	> 100 µM (inactive)	> 100 µM (inactive)	30.5 µM (inactive)	> 100 µM (inactive)	28.4 µM (inactive)	–	–
O=C1CC2CCN(C(=O)c3ccccc3)CC2CCN1.O=C1CCC2CC(C(=O)c3ccccc3)CCC2CN1 (stereo not drawn)	> 100 µM (inactive)	> 100 µM (inactive)	–	> 100 µM (inactive)	> 100 µM (inactive)	> 100 µM (inactive)	> 100 µM (inactive)	> 100 µM (inactive)	–
C/C(=N\NS(=O)(=O)c1ccccc1)c1ccc[n+]([O-])n1	> 100 µM (inactive)	97.3 µM (inactive)	–	> 100 µM (inactive)	44.9 µM (inactive)	> 100 µM (inactive)	37.8 µM (inactive)	63.7 µM (inactive)	> 100 µM (inactive)
C=CCc1cc(OC)c(O)c(C(=O)/C=C/c2ccc(OC)c(OC)c2)c1	–	17.8 µM (inactive)	14.1 µM (inactive)	> 10 µM (inactive)	18.4 µM (inactive)	–	20.9 µM (inactive)	28.8 µM (inactive)	25.4 µM (inactive)
CN1CC(C(=O)C2C(=O)c3ccccc3C2=O)C(=O)C(=O)C(C(=O)C2C(=O)c3ccccc3C2=O)C1 (stereo not drawn)	–	> 100 µM (inactive)	> 100 µM (inactive)	–	> 100 µM (inactive)	–	–	–	> 100 µM (inactive)
N#Cc1nc(Nc2ccc(Cl)cc2)sc1N	12.4 µM (inactive)	3.07 µM (inactive)	14.3 µM (inactive)	17.1 µM (inactive)	17.9 µM (inactive)	29.4 µM (inactive)	3.55 µM (inactive)	10.8 µM (inactive)	–
CCOC(=O)c1s/c(=N\Nc2nc3ccccc3cc2C2OCCO2)n(Cc2ccccc2)c1C	> 100 µM (inactive)	> 100 µM (inactive)	> 100 µM (inactive)	> 100 µM (inactive)	> 100 µM (inactive)	> 100 µM (inactive)	> 100 µM (inactive)	> 100 µM (inactive)	> 100 µM (inactive)
Cc1c2ccnc(C(N)=O)c2c(C)c2c1[nH]c1ccccc12	7.46 µM (inactive)	8.91 µM (inactive)	8.24 µM (inactive)	6.62 µM (inactive)	5.07 µM (inactive)	9.48 µM (inactive)	5.69 µM (inactive)	14 µM (inactive)	4.58 µM (inactive)
O=C1NC(=O)C(C(=O)C(=O)Nc2cccc(C(F)(F)F)c2)C(=O)N1	> 100 µM (inactive)	> 100 µM (inactive)	–	> 100 µM (inactive)	> 100 µM (inactive)	–	> 100 µM (inactive)	> 100 µM (inactive)	–
CCOC(=O)/C=C(/CN1C(=O)c2ccccc2C1=O)c1ccccc1	> 100 µM (inactive)	> 100 µM (inactive)	> 100 µM (inactive)	> 100 µM (inactive)	> 100 µM (inactive)	> 100 µM (inactive)	> 100 µM (inactive)	88.9 µM (inactive)	–
COC(=O)C(=O)C(C(=O)C(=O)Nc1ccccc1[N+](=O)[O-])c1nc2ccc([N+](=O)[O-])cc2nc1O (stereo not drawn)	> 100 µM (inactive)	> 100 µM (inactive)	–	> 100 µM (inactive)	–	> 100 µM (inactive)	> 100 µM (inactive)	> 100 µM (inactive)	> 100 µM (inactive)
N#Cc1ccccc1NC(=O)c1ccccc1	> 100 µM (inactive)	–	> 100 µM (inactive)	> 100 µM (inactive)	> 100 µM (inactive)	> 100 µM (inactive)	–	> 100 µM (inactive)	–
CC1COS(=O)N1c1ccccc1 (stereo not drawn)	> 100 µM (inactive)	> 100 µM (inactive)	> 100 µM (inactive)	> 100 µM (inactive)	> 100 µM (inactive)	> 100 µM (inactive)	> 100 µM (inactive)	–	–
Nc1nc(SCCC/C=C/B(O)O)nc2c1ncn2C1OC(COP(=O)(O)O)C(O)C1O (stereo not drawn)	> 203 µM (inactive)	> 203 µM (inactive)	> 203 µM (inactive)	> 203 µM (inactive)	> 203 µM (inactive)	> 203 µM (inactive)	–	> 203 µM (inactive)	–
O=C(N/C(=C\c1ccc2c(c1)OCO2)c1nc2ccccc2[nH]1)c1ccccc1	3.03 µM (inactive)	2.39 µM (inactive)	15.5 µM (inactive)	33.7 µM (inactive)	30.8 µM (inactive)	43.6 µM (inactive)	20.4 µM (inactive)	39.4 µM (inactive)	–
N#CCC(=O)N/N=C(/C(=O)Nc1ccccc1)C1C(=O)N(c2ccccc2)N=C1N (stereo not drawn)	> 100 µM (inactive)	> 100 µM (inactive)	> 100 µM (inactive)	> 100 µM (inactive)	> 100 µM (inactive)	> 100 µM (inactive)	> 100 µM (inactive)	> 100 µM (inactive)	> 100 µM (inactive)
C=CCc1cc(-c2cc(CC=C)c(O)c(CN(CCCl)CCCl)c2)cc(CN(CCCl)CCCl)c1O	14.5 µM (inactive)	–	> 10 µM (inactive)	16.6 µM (inactive)	16.4 µM (inactive)	25.2 µM (inactive)	12.2 µM (inactive)	35.4 µM (inactive)	14.1 µM (inactive)
Clc1c(Cl)c2c(Cl)c(Cl)c1C[PH](c1ccccc1)(c1ccccc1)CC[PH](c1ccccc1)(c1ccccc1)Cc1c(Cl)c(Cl)c(c(Cl)c1Cl)C[PH](c1ccccc1)(c1ccccc1)CC[PH](c1ccccc1)(c1ccccc1)C2	2.81 µM (inactive)	1.68 µM (inactive)	–	2.65 µM (inactive)	2.37 µM (inactive)	8.17 µM (inactive)	2.15 µM (inactive)	3.82 µM (inactive)	6.68 µM (inactive)
CC(=O)OCC(OC(C)=O)C(OC(C)=O)C(OC(C)=O)C(=O)CNn1c(-c2ccc(C)cc2)nc2ccccc2c1=O (stereo not drawn)	> 100 µM (inactive)	54.1 µM (inactive)	16.5 µM (inactive)	> 100 µM (inactive)	–	–	> 100 µM (inactive)	> 100 µM (inactive)	–
CC(C)N(C(=O)C12C3C4C1(I)C1C2C3(I)C41C(=O)N(C(C)C)C(C)C)C(C)C (stereo not drawn)	> 47 µM (inactive)	–	> 100 µM (inactive)	> 100 µM (inactive)	> 56.5 µM (inactive)	> 100 µM (inactive)	> 67.6 µM (inactive)	–	> 100 µM (inactive)
CCOC(=O)C1C(c2ccc(Br)cc2)N(Cc2ccccc2)C(c2ccc(Br)cc2)C(C(=O)OC)S1(=O)=O (stereo not drawn)	74.6 µM (inactive)	66.4 µM (inactive)	> 100 µM (inactive)	> 100 µM (inactive)	> 100 µM (inactive)	21.9 µM (inactive)	> 100 µM (inactive)	> 100 µM (inactive)	–
COc1ccccc1NC(=O)C1=C(C)NC(C)=C(C(=O)Nc2ccccc2OC)C1c1ccc([N+](=O)[O-])cc1	–	9.12 µM (inactive)	3.5 µM (inactive)	> 100 µM (inactive)	46.6 µM (inactive)	> 100 µM (inactive)	48.2 µM (inactive)	> 100 µM (inactive)	56.8 µM (inactive)
CCCCCNC(=O)C1C(=O)N(CCCCC)C(=O)/C1=N\N (stereo not drawn)	86.5 µM (inactive)	–	–	48.6 µM (inactive)	70.6 µM (inactive)	50 µM (inactive)	41.2 µM (inactive)	23.6 µM (inactive)	–
COc1c(OC(C)=O)c(OC(C)=O)cc2c1-c1ccc(OC)c(=O)cc1C(NC(C)=O)CC2 (stereo not drawn)	< 0.0167 µM (active)	< 0.0127 µM (active)	0.0311 µM (active)	0.0222 µM (active)	0.0186 µM (active)	–	< 0.01 µM (active)	< 0.01 µM (active)	0.0676 µM (active)
CCCCCCCCCCCCCCCC(=O)NC1CCc2cc(O)c(O)c(O)c2-c2ccc(SC)c(=O)cc21 (stereo not drawn)	–	1.94 µM (inactive)	7.26 µM (inactive)	15.7 µM (inactive)	7.94 µM (inactive)	–	1.44 µM (inactive)	8.55 µM (inactive)	13.2 µM (inactive)
